{"source": "patent US12435091B2", "about": "“RNA-binding protein multimerization inhibitors and methods of use thereof” (THE UAB RESEARCH FOUNDATION, priority 2020, dated 2025)", "key": {"[1]": {"test_system": "Primary human neuronal cells", "test": "cytotoxicity in primary human neurons (morphology, cell number, metabolism, cleaved caspase-3)", "format": "cell-based", "source_text": "PrestoBlue cell viability reagent (ThermoFisher Scientific; Waltham, MA) was used for cell viability assays. The inhibitory dose-response data were normalized to the control (treatment with vehicle); the inhibitory dose-response curves, which were fitted by using Boltzmann equation, and the corresponding IC50s were generated by using OriginPro software (OriginLab Corporation, CA).\n(§1) At the end of experiments, neurons and astrocytes were rinsed briefly with PBS and fixed by using 4% paraformaldehyde, pH 7.4 for 13 minutes at room temperature. Triton X-100 (0.3%) in PBST buffer (i.e., PBS with 0.1% Tween 20) was used for cell permeabilization for 30 minutes at room temperature. Cells were rinsed with PBST buffer 3 times for 10 minutes after fixation. Blocking buffer (3% BSA, 22.52 mg/ml glycine in PBST) was used to block unspecific antibody binding for 30 minutes at room temperature. Primary cleaved caspase 3 antibody (Cell Signaling Technology; Danvers, MA) at 1:200 dilution in PBST buffer with 1% BSA was utilized overnight at 4° C. for cleaved caspase 3 staining. The next day, cells were rinsed four times for 10 minutes with PBST buffer and then were incubated with secondary antibody (Alexa Fluor 594, goat anti-rabbit IgG, Invitrogen (Carlsbad, CA), 1:2000/5000 dilution) in PBST buffer with 1% BSA for 1 hour at room temperature in the dark. Next, cells were rinsed with PBST buffer 4 times for 10 minutes in the dark. Cell nucleus were stained with DAPI (4′,6-diamidino-2-phenylindole). Cell images were obtained with EVOS Fl (Life Technologies; Eugene, OR) imaging system.\nThe cellular metabolism declined by about 44% after treatment with SRI-42127, 25 uM for 48 hours as shown by FIG. 5E. […] Therefore, compound SRI-42127 inhibited glioma cell growth and had low neuronal and astrocyte cytotoxicity at concentrations below 15 uM."}, "HuR": {"biological_target": "T1, HuR (Homo sapiens, UniProt Q15717)", "T1 construct": "expressed in transfected cells; host or cells: U251 glioma cells, doxycycline-inducible constructs", "T1 sequence (Q15717 whole entry, the tested form may be a part)": "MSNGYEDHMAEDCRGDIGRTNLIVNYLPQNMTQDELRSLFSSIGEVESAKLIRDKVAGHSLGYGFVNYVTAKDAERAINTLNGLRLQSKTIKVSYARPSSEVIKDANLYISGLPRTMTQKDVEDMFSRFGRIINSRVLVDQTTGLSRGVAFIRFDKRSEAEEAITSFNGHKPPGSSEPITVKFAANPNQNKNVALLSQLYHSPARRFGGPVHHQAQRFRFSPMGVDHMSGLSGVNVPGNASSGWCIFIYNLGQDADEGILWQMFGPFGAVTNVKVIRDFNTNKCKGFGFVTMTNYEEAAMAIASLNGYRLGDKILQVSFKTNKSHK", "test": "cell-based split firefly luciferase-HuR dimerization assay", "procedure,_shortened": "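U251 cells carrying HuR fused to N- or C-terminal split firefly luciferase halves (dimer reporter) or full-length Fluc (control); constructs induced with doxycycline 0.75 ug/ml for 48 h. Compounds at various concentrations vs vehicle for 6 h. Luciferin-driven luminescence read; mean+SD.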"}, "HMGB1": {"test_system": "HMGB1", "test": "nuclear/cytoplasmic localization by confocal microscopy in LPS-activated primary microglia", "format": "cell-based, mouse", "details": "0.5 μM for 24 hours", "protocol": "To assess the specificity of SRI-42127 for blocking HuR cytoplasmic translocation, the effect of SRI-42127 on cytoplasmic translocation of HMGB1 was assessed. Like HuR, HMGB1 is nuclear predominant and translocates with microglial activation. Primary microglia were treated with LPS and 0.5 μM of SRI-42127 for 24 hours. Cells were fixed and immunostained for HMGB1 and IBA1. Nuclear/cytoplasmic localization was assessed by confocal microscopy. Total HMGB1 immunofluorescence in each cell (boundaries defined by IBA1 staining), was quantified using Fiji software. The nuclear portion was determined by quantifying the amount of HMGB1 fluorescence that overlapped with DAPI fluorescence. HuR translocation was studied in parallel with the same methodology.\nIn unactivated microglia (LPS-), both HuR and HMGB1 were nuclear predominant with little to no merged signal with cytoplasmic IBA1 as depicted in FIG. 11, Panel C."}, "primary human astrocytes": {"test_system": "primary human astrocytes", "test": "cleaved caspase-3 immunostaining in primary human astrocytes", "format": "cell-based", "details": "up to 15 uM", "protocol": "as §1\nThe cellular metabolism declined by about 44% after treatment with SRI-42127, 25 uM for 48 hours as shown by FIG. 5E. […]"}, "IRAK1": {"biological_target": "IRAK1 (Homo sapiens, UniProt P51617)", "sequence (P51617 whole entry)": "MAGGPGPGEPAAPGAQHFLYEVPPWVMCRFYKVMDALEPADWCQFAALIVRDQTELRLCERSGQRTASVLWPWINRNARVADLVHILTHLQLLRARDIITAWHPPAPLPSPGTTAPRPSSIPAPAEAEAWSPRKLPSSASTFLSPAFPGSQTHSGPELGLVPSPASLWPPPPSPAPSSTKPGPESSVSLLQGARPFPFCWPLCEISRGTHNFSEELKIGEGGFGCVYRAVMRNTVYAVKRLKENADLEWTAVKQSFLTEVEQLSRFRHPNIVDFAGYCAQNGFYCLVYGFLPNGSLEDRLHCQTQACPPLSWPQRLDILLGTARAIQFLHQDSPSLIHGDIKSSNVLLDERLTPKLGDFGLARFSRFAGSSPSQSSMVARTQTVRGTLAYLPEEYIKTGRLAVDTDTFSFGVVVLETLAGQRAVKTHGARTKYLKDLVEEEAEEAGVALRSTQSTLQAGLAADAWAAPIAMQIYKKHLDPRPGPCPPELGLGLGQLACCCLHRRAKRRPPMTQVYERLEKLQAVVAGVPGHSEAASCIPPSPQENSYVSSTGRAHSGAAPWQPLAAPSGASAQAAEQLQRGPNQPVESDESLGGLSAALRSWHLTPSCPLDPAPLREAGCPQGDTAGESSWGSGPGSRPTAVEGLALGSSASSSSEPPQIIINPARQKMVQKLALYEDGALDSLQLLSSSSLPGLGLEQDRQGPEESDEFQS", "test": "SelectScreen kinase profiling, Adapta", "format": "biochemical", "protocol": "The kinase inhibitory potentials of compounds as described herein (e.g., SRI-42127 and SRI-41664) were evaluated by ThermoFisher Scientific's SelectScreen™ Kinase Profiling Service. The following kinase inhibitory assays were utilized: ZLYTE (Madison, WI) for NTRK1, PIM1, and cMET kinases; LanthaScreen Binding (Madison, WI) for AAK1 kinase; and Adapta (Madison, WI) for IRAK1 kinase."}, "brain tissue binding": {"test": "brain tissue binding", "format": "in vitro ADME"}, "U251 cell line": {"test_system": "U251 cell line", "test": "attached cell colony formation assay", "format": "cell-based", "details": "3 uM", "protocol": "(§2) The soft agar colony formation assay was performed by using 0.9% and 0.45% agarose for the bottom and the top layers, respectively; cells were incorporated in the top layer. Seaplaque low-melting temperature agarose was purchased from Lonza (Rockland, ME). Five hundred cells per well were utilized in both, the soft agar and the attached colony formation assays, which were performed in 6 well plates; cells were treated with vehicle as the control or with the desired drugs, which were administered twice per week for three weeks. The Crystal violet solution (0.1%) was utilized for colony staining in both assays. The colonies were counted after three weeks of treatment; the plate images were obtained by using Amersham Imager-600 reader (Piscataway, NJ).\n(§3) Graphs in FIG. 8D illustrate the average numbers of colonies formed by established U251 and PDGx XD456 cell lines in the attached cell colony formation assay and in the soft agar colony formation assay, which represents anchorage independent cell growth."}, "XD456 cell line": {"test_system": "XD456 cell line", "test": "attached cell colony formation assay", "format": "cell-based", "details": "3 uM", "protocol": "as §2, §3"}}, "note": "Like-named read-outs stand apart in the source and are kept apart here."}
{"compound": "CN(c1ccc2ncc(-c3ccc4cn[nH]c4c3)n2n1)C1CCOCC1", "note": "[Compound 19]", "values": [{"measurement": "decline of cellular metabolism", "setting": "[1]; 25 uM for 48 hours", "value": "about 44%"}, {"measurement": "cleaved caspase-3 immunostaining", "setting": "[1]; neurons, up to 15 uM, 48 hours", "value": "no significant alterations"}, {"measurement": "morphological changes of neurons", "setting": "[1]; up to 15 uM for 48 hours", "value": "no morphological changes"}, {"measurement": "neuron cell numbers and cell sprouting", "setting": "[1]; up to 15 uM for 48 hours, listed as SRI-42127", "value": "remained unchanged"}, {"measurement": "HuR inhibition activity (in words)", "setting": "HuR", "value": "active"}, {"measurement": "HuR N/C Imax % Inh", "setting": "HuR; Concn 50 uM", "value": 90, "unit": "%"}, {"measurement": "IC50", "setting": "HuR; U251 cells co-expressing HuR-Nluc and HuR-Cluc, 6 hours of treatment, read-out: HuR IC50", "value": "1200 ± 200", "unit": "nM"}, {"measurement": "IC50", "setting": "HuR; U251 with dox-inducible HuR-dimerization reporters, after increase in HuR dimerization by two fold, 6 hours, read-out: IC50 for inhibition of HuR dimerization", "value": "1900 ± 100", "unit": "nM"}, {"measurement": "IC50", "setting": "HuR; U251 with dox-inducible HuR-dimerization reporters, before increase in HuR dimerization, 6 hours, read-out: IC50 for inhibition of HuR dimerization", "value": "1200 ± 100", "unit": "nM"}, {"measurement": "maximum inhibition of HuR dimerization", "setting": "HuR; after 6 hours of cell treatment", "value": "90±1", "unit": "%"}, {"measurement": "IC50", "setting": "HuR; split luciferase HuR dimerization assay, compounds administered for 6 hours, read-out: HuR IC50", "value": 1500, "unit": "nM"}, {"measurement": "HMGB1 N/C ratio", "setting": "HMGB1", "value": "no effect"}, {"measurement": "cleaved caspase-3 activation", "setting": "primary human astrocytes", "value": "significant alterations in cleaved caspase-3 activation were not observed"}, {"measurement": "IC50", "setting": "IRAK1", "value": 319, "unit": "nM"}, {"measurement": "brain tissue binding", "setting": "brain tissue binding", "value": 99.13, "unit": "%"}, {"measurement": "recovery", "setting": "brain tissue binding; brain tissue, relatively low due to instability or high nonspecific binding", "value": 69.6, "unit": "%"}, {"measurement": "number of colonies", "setting": "U251 cell line", "value": "49+28"}, {"measurement": "number of colonies", "setting": "XD456 cell line", "value": "34+12"}]}
